What was measured:
[1] = Safety and pharmacokinetic study of different GTN concentrations compared with sub-lingual Nitrostat; format: in vivo, human
[2] = test system: mitochondrial and cytosolic aldehyde dehydrogenase; details: in vitro; cited from earlier work

O=[N+]([O-])OCC(CO[N+](=O)[O-])O[N+](=O)[O-] [GTN, Glyceryl trinitrate]
plasma concentration versus dosage level ([1]; in vivo): increased proportionally with increasing dosage level | Tmax ([1]; male, human, in vivo, topical or ocular, pharmacokinetic modelling, topical gel, read-out: Tmax of initial zero order entry into systemic circulation): 10 to 12 min | first appearance of GTN after application (lag time) ([1]; pharmacokinetic modelling, topical gel): around 4 minutes | time of peak rate of formation of nitric oxide from GTN [2]: approximately 100 seconds

Reference: US20210000757A1, “TOPICAL COMPOSITION” (Futura Medical Developments Limited, priority 2017, published 2021)
